Assay results: US20220380378A1 (ESSA Pharma, Inc., priority 2021, published 2022)

Columns and labels:
[1] = Microsomal stability assay, liver microsome half-life (human); type: in vitro ADME; details: pH 7.4; human liver microsomes 0.5 mg/mL, 1 μM compound, 37° C.; read-out: Liver microsome T1/2 Human
From the text: (§1) Microsomal Stability Assay: Microsomal stability assay is a widely used in vitro model to characterize the metabolic conversion by phase I enzymes, such as cytochrome P450 (CYP) enzymes. Since metabolism is known to be highly variable in different species, microsomal stability assay is commonly run in multiple species. Metabolic stability of testing compound can be evaluated using human, rat, mouse, or other animal liver or intestine microsomes to predict intrinsic clearance.
(§2) The assay was carried out in 96-well microtiter plates at 37° C. Reaction mixtures (25 μL) contained a final concentration of 1 μM test compound, 0.5 mg/mL liver microsomes protein, and 1 mM NADPH and/or 1 mM UDPGA (with alamethicin) in 100 mM potassium phosphate, pH 7.4 buffer with 3 mM MgCl2. The incubation was done with N=1, but duplicate incubation at each time point can be prepared if necessary. At each of the time points (for example, 0, 15, 30, and 60 minutes), 150 μL of quench solution (100% acetonitrile with 0.1% formic acid) with internal standard was transferred to each well. Besides the zero minute controls, mixtures containing the same components except the NADPH can also be prepared as the negative control. Verapamil was included as a positive control to verify assay performance. Plates were sealed, vortexed, and centrifuged at 4° C. for 15 minutes at 4000 rpm. The supernatant is transferred to fresh plates for LC/MS/MS analysis.
(§3) Summarized conditions: [Compound]=1 μM, [LM]=0.5 mg/mL, [NADPH]=1 mM and/or [UDPGA]=1 mM, Buffer=100 mM Potassium Phosphate, pH 7.4 with 3 mM MgCl2, Time=0, 15, 30, and 60 min, and Temperature=37° C.
(§4) All samples were analyzed on LC/MS/MS using an AB Sciex API 4000 instrument, coupled to a Shimadzu LC-20AD LC Pump system. Analytical samples were separated using a Waters Atlantis T3 dC18 reverse phase HPLC column (20 mm×2.1 mm) at a flow rate of 0.5 mL/min. The mobile phase consisted of 0.1% formic acid in water (solvent A) and 0.1% formic acid in 100% acetonitrile (solvent B).
(§5) The extent of metabolism is calculated as the disappearance of the test compound, compared to the 0-min time incubation. Initial rates are calculated for the compound concentration and used to determine half-life (t½). […]

[2] = Microsomal stability assay, liver microsome half-life (mouse); type: in vitro ADME; details: pH 7.4; mouse liver microsomes 0.5 mg/mL, 1 μM compound, 37° C.; read-out: Liver microsome T1/2 Mouse
From the text: as §1, §2, §3, §4, §5

[3] = Microsomal stability assay, liver microsome half-life (rat); type: in vitro ADME; details: pH 7.4; rat liver microsomes 0.5 mg/mL, 1 μM compound, 37° C.; read-out: Liver microsome T1/2 Rat
From the text: as §1, §2, §3, §4, §5

[4] = Microsomal stability assay, liver microsome half-life (dog); type: in vitro ADME; details: pH 7.4; dog liver microsomes 0.5 mg/mL, 1 μM compound, 37° C.; read-out: Liver microsome T1/2 Dog
From the text: as §1, §2, §3, §4
(§6) The extent of metabolism is calculated as the disappearance of the test compound, compared to the 0-min time incubation. Initial rates are calculated for the compound concentration and used to determine half-life (t½).

[5] = Microsomal stability assay, liver microsome half-life (monkey); type: in vitro ADME; details: pH 7.4; monkey liver microsomes 0.5 mg/mL, 1 μM compound, 37° C.; read-out: Liver microsome T1/2 Monkey
From the text: as §1, §2, §3, §4, §6

[6] = target: T1, androgen receptor (AR) (Homo sapiens, UniProt P10275, T878A); test: Androgen-induced PSA (6.1 kb)-luciferase reporter assay in LNCaP cells (R1881 1 nM); type: cell-based; set-up: endogenous in cells; host or cells: LNCaP; details: 24 h, read-out: PSA-Luc IC50 Range
T1 sequence (P10275 1-920 T878A): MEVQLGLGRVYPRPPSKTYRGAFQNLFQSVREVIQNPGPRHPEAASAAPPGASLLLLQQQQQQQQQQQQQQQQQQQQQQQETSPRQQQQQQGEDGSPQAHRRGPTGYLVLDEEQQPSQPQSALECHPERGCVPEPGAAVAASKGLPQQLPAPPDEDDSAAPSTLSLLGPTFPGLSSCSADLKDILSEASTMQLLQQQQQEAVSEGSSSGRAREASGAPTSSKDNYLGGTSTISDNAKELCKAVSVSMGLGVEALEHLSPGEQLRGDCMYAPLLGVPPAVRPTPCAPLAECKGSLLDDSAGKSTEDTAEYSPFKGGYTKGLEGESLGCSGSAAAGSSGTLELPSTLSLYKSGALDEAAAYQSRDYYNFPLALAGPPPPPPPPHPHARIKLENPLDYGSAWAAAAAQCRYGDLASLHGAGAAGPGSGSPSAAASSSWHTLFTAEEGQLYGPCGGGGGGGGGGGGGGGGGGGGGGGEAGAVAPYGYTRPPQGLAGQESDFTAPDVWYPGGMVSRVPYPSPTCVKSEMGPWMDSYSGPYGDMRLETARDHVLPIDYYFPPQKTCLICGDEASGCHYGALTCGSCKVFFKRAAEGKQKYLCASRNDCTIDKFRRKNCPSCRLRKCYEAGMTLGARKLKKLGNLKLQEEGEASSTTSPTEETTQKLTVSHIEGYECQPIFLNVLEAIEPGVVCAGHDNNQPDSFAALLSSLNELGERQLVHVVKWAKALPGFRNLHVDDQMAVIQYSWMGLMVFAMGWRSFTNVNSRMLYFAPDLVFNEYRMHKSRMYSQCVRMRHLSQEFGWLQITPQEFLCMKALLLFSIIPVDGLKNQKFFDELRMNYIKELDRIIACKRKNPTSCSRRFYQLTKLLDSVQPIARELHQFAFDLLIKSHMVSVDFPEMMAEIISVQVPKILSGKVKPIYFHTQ
In short: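 LNCaP cells transiently transfected with PSA (6.1 kb)-luciferase for 24 h, pretreated 1 h with compound or DMSO, then stimulated with 1 nM R1881 for 24 h. Firefly luciferase in lysates normalized to protein content; IC50 relative to R1881-induced vehicle activity.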

Structure (SMILES)	half-life at 1 μM [1] [h]	half-life at 1 μM [2] [h]	half-life at 1 μM [3] [h]	half-life at 1 μM [4] [h]	half-life at 1 μM [5] [h]	IC50 [6] [nM]
CS(=O)(=O)N1CC(COc2ccc3c(ccn3-c3cc(Cl)c(OCCCl)c(C#N)c3)c2)C1 [Compound A59]	0.183	> 2	> 2	0.967	0.117	< 500
CS(=O)(=O)Nc1ncc(Cn2ncc3c(-c4cc(Cl)c(OCCCl)c(C#N)c4)cccc32)cn1 [Compound A144]	> 2	> 2	> 2	> 2	> 2	500 to 2000
CC(C)(c1ccc(-c2ccc3nc(NS(C)(=O)=O)oc3c2)cc1)c1cc(Cl)c(OCCCl)c(C#N)c1 [Compound A254]	> 2	> 2	> 2	> 2	> 2	500 to 2000
CC(C)(c1ccc(-c2ccc3nc(NS(C)(=O)=O)nc(N)c3c2)cc1)c1cc(Cl)c(OCCCl)c(C#N)c1 [Compound A173]	> 2	> 2	> 2	> 2	> 2	< 500
CC(c1cc(Cl)c(OCCCl)c(C#N)c1)n1cc(-c2ccc3nc(NS(C)(=O)=O)ncc3c2)cn1 (stereo not drawn) [Compound A141]	> 2	> 2	> 2	> 2	1.1	> 2000
C[C@@H](Oc1ccc(C(C)(C)c2cc(Cl)c(OCCCl)c(C#N)c2)cc1)C12CC(NS(C)(=O)=O)(C1)C2 [Compound A264]	> 2	> 2	> 2	> 2	0.8	500 to 2000
CC(C)(c1ccc(-c2cnc3nc(NS(C)(=O)=O)ccc3c2)cc1)c1cc(Cl)c(OCCCl)c(C#N)c1 [Compound A194]	1.97	> 2	> 2	1.48	> 2	< 500
CS(=O)(=O)Nc1nccc(COc2ccc3c(c2)CCC3c2cc(Cl)c(OCCCl)c(C#N)c2)n1 (stereo not drawn) [Compound A35, N-(4-(((1-(3-chloro-4-(2-chloroethoxy)-5-cyanophenyl)-2,3-dihydro-1H-inden-5-yl)oxy)methyl)pyrimidin-2-yl)methanesulfonamide]	> 2	> 2	> 2	> 2	> 2	500 to 2000
CS(=O)(=O)NC1CN(CCc2ccc3c(ccn3-c3cc(Cl)c(OCCCl)c(C#N)c3)c2)C1 [Compound A126, N-(1-(2-(1-(3-chloro-4-(2-chloroethoxy)-5-cyanophenyl)-1H-indol-5-yl)ethyl)azetidin-3-yl)methanesulfonamide]	> 2	> 2	0.95	0.733	0.583	500 to 2000
CC(C)(c1ccc(-c2ccc3nc(NS(C)(=O)=O)sc3c2)cc1)c1cc(Cl)c(OCCCl)c(C#N)c1 [Compound A274]	> 2	> 2	> 2	> 2	> 2	< 500
CS(=O)(=O)NC1CCN(CCc2ccc3c(ccn3-c3cc(Cl)c(OCCCl)c(C#N)c3)c2)CC1 [Compound A187]	> 2	> 2	> 2	> 2	1.47	500 to 2000
CC(C)(c1ccc(-c2ccc3nc(NS(C)(=O)=O)ccc3n2)cc1)c1cc(Cl)c(OCCCl)c(C#N)c1 [Compound A191]	> 2	> 2	> 2	> 2	> 2	< 500
CC(C)(c1ccc(-c2cnc3c(c2)CCC3NS(C)(=O)=O)cc1)c1cc(Cl)c(OCCCl)c(C#N)c1 (stereo not drawn) [Compound A217]	> 2	> 2	0.433	0.833	0.933	500 to 2000
CS(=O)(=O)Nc1cnc2cc(-c3ccc4c(c3)CCC4c3cc(Cl)c(OCCCl)c(C#N)c3)ccc2n1 (stereo not drawn) [Compound A270]	> 2	> 2	> 2	> 2	> 2	500 to 2000
CS(=O)(=O)Nc1nccc(COc2ccc3c(ccn3-c3cc(Cl)c(OCCCl)c(C#N)c3)c2)n1 [Compound A36, N-(4-(((1-(3-chloro-4-(2-chloroethoxy)-5-cyanophenyl)-1H-indol-5-yl)oxy)methyl)pyrimidin-2-yl)methanesulfonamide]	> 2	> 2	> 2	> 2	> 2	< 500
CS(=O)(=O)N[C@H]1C[C@H](COc2ccc3c(ccn3-c3cc(Cl)c(OCCCl)c(C#N)c3)c2)C1 [Compound A135]	> 2	1.97	> 2	> 2	0.733	500 to 2000
CS(=O)(=O)NC12CC(COc3ccc4c(ccn4-c4cc(Cl)c(OCCCl)c(C#N)c4)c3)(C1)C2 [Compound A57, N-(3-(((1-(3-chloro-4-(2-chloroethoxy)-5-cyanophenyl)-1H-indol-5-yl)oxy)methyl)bicyclo[1.1.1]pentan-1-yl)methanesulfonamide]	1.15	> 2	> 2	> 2	1.13	< 500
